Measurements: the OligoGym collection
HELM strings list units from the 5' end as sugar, base in round brackets, then linkage (d deoxyribose, r ribose, m 2'-O-methyl, p phosphodiester). Strings are as the collection lists them; they lack the last nucleoside at the 3' end of the tested compound. [moe] = 2'-O-(2-methoxyethyl) (MOE); [sp] = phosphorothioate linkage; [m5C] = 5-methylcytosine

Target: ATXN3
Assay: mouse, dose not given
Conditions: ASO

| Substance | 3 h FOB score |
| --- | --- |
| RNA1{[moe](G)[sp].[moe]([m5C])p.[moe](A)p.[moe](T)p.[moe](A)[sp].d(T)[sp].d(T)[sp].d(G)[sp].d(G)[sp].d(T)[sp].d(T)[sp].d(T)[sp].d(T)[sp].d([m5C])[sp].d(T)[sp].[moe]([m5C])p.[moe](A)p.[moe](T)p.[moe](T)}$$$$ (last 3' nucleoside missing) | 3 score 0-7 |
| RNA1{[moe](G)[sp].[moe]([m5C])[sp].[moe](T)p.[moe]([m5C])p.[moe](A)[sp].d(T)[sp].d(T)[sp].d(T)[sp].d(A)[sp].d(T)[sp].d(T)[sp].d([m5C])[sp].d(T)[sp].d([m5C])[sp].d(A)[sp].[moe](A)p.[moe](G)p.[moe](T)[sp].[moe](A)}$$$$ (last 3' nucleoside missing) | 1 score 0-7 |
| RNA1{[moe](A)[sp].[moe](T)p.[moe](G)[sp].[moe](T)[sp].[moe](T)[sp].d(A)[sp].d(A)[sp].d(T)[sp].d(A)[sp].d([m5C])[sp].d(T)[sp].d(T)[sp].d(T)[sp].d(T)[sp].d(T)[sp].[moe]([m5C])[sp].[moe]([m5C])p.[moe](A)[sp].[moe](G)}$$$$ (last 3' nucleoside missing) | 0.25 score 0-7 |
| RNA1{[moe](T)[sp].[moe](G)p.[moe](T)p.[moe](T)p.[moe]([m5C])[sp].d(A)[sp].d(T)[sp].d(A)[sp].d(T)[sp].d([m5C])[sp].d([m5C])[sp].d(T)[sp].d(T)[sp].d(T)[sp].d(A)[sp].[moe](A)p.[moe]([m5C])p.[moe]([m5C])[sp].[moe]([m5C])}$$$$ (last 3' nucleoside missing) | 0 score 0-7 |
| RNA1{[moe](G)[sp].[moe]([m5C])p.[moe](T)p.[moe]([m5C])p.[moe](A)p.[moe](T)p.d(T)[sp].d(T)[sp].d(A)[sp].d(T)[sp].d(T)[sp].d([m5C])[sp].d(T)[sp].d([m5C])[sp].d(A)[sp].d(A)[sp].[moe](G)p.[moe](T)[sp].[moe](A)}$$$$ (last 3' nucleoside missing) | 0 score 0-7 |
| RNA1{[moe](T)[sp].[moe](G)p.[moe](G)p.[moe]([m5C])p.[moe](A)p.[moe]([m5C])p.d(A)[sp].d(T)[sp].d(T)[sp].d(T)[sp].d(T)[sp].d(T)[sp].d(T)[sp].d(A)[sp].d(T)[sp].d(A)[sp].[moe](G)p.[moe](A)[sp].[moe](G)}$$$$ (last 3' nucleoside missing) | 2.75 score 0-7 |
| RNA1{[moe](G)[sp].[moe](T)p.[moe](T)p.[moe](A)p.[moe](A)p.[moe](T)p.d(A)[sp].d([m5C])[sp].d(T)[sp].d(T)[sp].d(T)[sp].d(T)[sp].d(T)[sp].d([m5C])[sp].d([m5C])[sp].d(A)[sp].[moe](G)p.[moe]([m5C])[sp].[moe]([m5C])}$$$$ (last 3' nucleoside missing) | 1 score 0-7 |
| RNA1{[moe](A)[sp].[moe]([m5C])p.[moe]([m5C])p.[moe](A)p.[moe](T)[sp].d([m5C])[sp].d(T)[sp].d(T)[sp].d(T)[sp].d(G)[sp].d(A)[sp].d([m5C])[sp].d(A)[sp].d(A)[sp].d(G)[sp].[moe]([m5C])p.[moe](T)p.[moe](A)[sp].[moe](T)}$$$$ (last 3' nucleoside missing) | 2.75 score 0-7 |
| RNA1{[moe](G)[sp].[moe]([m5C])p.[moe](A)p.[moe](T)p.[moe](A)[sp].d(T)[sp].d(T)[sp].d(G)[sp].d(G)[sp].d(T)[sp].d(T)[sp].d(T)[sp].d(T)[sp].d([m5C])[sp].[moe](T)p.[moe]([m5C])p.[moe](A)[sp].[moe](T)}$$$$ (last 3' nucleoside missing) | 5.5 score 0-7 |
| RNA1{[moe](G)[sp].[moe]([m5C])p.[moe](A)p.[moe](T)p.[moe](A)p.d(T)[sp].d(T)[sp].d(G)[sp].d(G)[sp].d(T)[sp].d(T)[sp].d(T)[sp].d(T)[sp].d([m5C])[sp].d(T)[sp].[moe]([m5C])p.[moe](A)p.[moe](T)[sp].[moe](T)}$$$$ (last 3' nucleoside missing) | 2.5 score 0-7 |
| RNA1{[moe](T)[sp].[moe](G)p.[moe](G)p.[moe](T)p.[moe](T)[sp].d(T)[sp].d(T)[sp].d([m5C])[sp].d(T)[sp].d([m5C])[sp].d(A)[sp].d(T)[sp].d(T)[sp].d(T)[sp].d(T)[sp].[moe](T)p.[moe](A)p.[moe](T)[sp].[moe](A)}$$$$ (last 3' nucleoside missing) | 0 score 0-7 |
| RNA1{[moe](G)[sp].[moe]([m5C])p.[moe](A)p.[moe](T)p.[moe](A)p.d(T)[sp].d(T)[sp].d(G)[sp].d(G)[sp].d(T)[sp].d(T)[sp].d(T)[sp].d(T)[sp].d([m5C])[sp].d(T)[sp].[moe]([m5C])p.[moe](A)p.[moe](T)p.[moe](T)}$$$$ (last 3' nucleoside missing) | 3 score 0-7 |
| RNA1{[moe](T)[sp].[moe](G)[sp].[moe]([m5C])p.[moe](T)p.[moe]([m5C])[sp].d(A)[sp].d(T)[sp].d(T)[sp].d(T)[sp].d(A)[sp].d(T)[sp].d(T)[sp].d([m5C])[sp].d(T)[sp].d([m5C])[sp].[moe](A)p.[moe](A)p.[moe](G)[sp].[moe](T)}$$$$ (last 3' nucleoside missing) | 1 score 0-7 |
| RNA1{[moe](G)[sp].[moe](T)p.[moe](G)p.[moe](A)p.[moe]([m5C])[sp].d(T)[sp].d(A)[sp].d(A)[sp].d([m5C])[sp].d(A)[sp].d(G)[sp].d(T)[sp].d(A)[sp].d(T)[sp].d(G)[sp].[moe](T)p.[moe](T)p.[moe](T)[sp].[moe](T)}$$$$ (last 3' nucleoside missing) | 2.25 score 0-7 |
| RNA1{[moe](G)[sp].[moe](T)p.[moe](T)p.[moe](A)p.[moe](A)p.d(T)[sp].d(A)[sp].d([m5C])[sp].d(T)[sp].d(T)[sp].d(T)[sp].d(T)[sp].d(T)[sp].d([m5C])[sp].d([m5C])[sp].[moe](A)p.[moe](G)p.[moe]([m5C])[sp].[moe]([m5C])}$$$$ (last 3' nucleoside missing) | 1 score 0-7 |
| RNA1{[moe](T)[sp].[moe](G)p.[moe]([m5C])p.[moe](T)p.[moe](T)[sp].d(T)[sp].d(T)[sp].d([m5C])[sp].d(A)[sp].d(T)[sp].d(A)[sp].d([m5C])[sp].d([m5C])[sp].d(A)[sp].d(G)[sp].[moe](G)p.[moe](T)p.[moe]([m5C])[sp].[moe](T)}$$$$ (last 3' nucleoside missing) | 0.25 score 0-7 |
| RNA1{[moe](G)[sp].[moe]([m5C])p.[moe](A)p.[moe]([m5C])p.[moe]([m5C])p.d(A)[sp].d(T)[sp].d(A)[sp].d(T)[sp].d(A)[sp].d(T)[sp].d(A)[sp].d(T)[sp].d([m5C])[sp].d(T)[sp].[moe]([m5C])p.[moe](A)p.[moe](G)[sp].[moe](A)}$$$$ (last 3' nucleoside missing) | 1 score 0-7 |
| RNA1{[moe](T)[sp].[moe](G)p.[moe](G)p.[moe](A)p.[moe](A)[sp].d([m5C])[sp].d(T)[sp].d(A)[sp].d([m5C])[sp].d([m5C])[sp].d(T)[sp].d(T)[sp].d(G)[sp].d([m5C])[sp].d(A)[sp].[moe](T)p.[moe](A)p.[moe]([m5C])[sp].[moe](T)}$$$$ (last 3' nucleoside missing) | 5.38 score 0-7 |
| RNA1{[moe](G)[sp].[moe](T)p.[moe](T)p.[moe]([m5C])p.[moe](A)p.[moe](T)p.d(A)[sp].d(T)[sp].d([m5C])[sp].d([m5C])[sp].d(T)[sp].d(T)[sp].d(T)[sp].d(A)[sp].d(A)[sp].d([m5C])[sp].[moe]([m5C])p.[moe]([m5C])[sp].[moe](A)}$$$$ (last 3' nucleoside missing) | 0.25 score 0-7 |
| RNA1{[moe](G)[sp].[moe](T)p.[moe](G)p.[moe]([m5C])p.[moe](T)[sp].d(A)[sp].d(T)[sp].d(A)[sp].d(A)[sp].d(T)[sp].d(T)[sp].d([m5C])[sp].d(T)[sp].d(T)[sp].d(G)[sp].[moe]([m5C])p.[moe](T)p.[moe](T)[sp].[moe]([m5C])}$$$$ (last 3' nucleoside missing) | 1.25 score 0-7 |
| RNA1{[moe](A)[sp].[moe](A)p.[moe](T)p.[moe](T)p.[moe]([m5C])[sp].d(T)[sp].d(T)[sp].d(G)[sp].d([m5C])[sp].d(T)[sp].d(T)[sp].d([m5C])[sp].d(A)[sp].d(A)[sp].d([m5C])[sp].[moe]([m5C])p.[moe](A)p.[moe](T)[sp].[moe]([m5C])}$$$$ (last 3' nucleoside missing) | 1.25 score 0-7 |
| RNA1{[moe](G)[sp].[moe]([m5C])p.[moe]([m5C])p.[moe](A)p.[moe](T)p.[moe](T)p.d(A)[sp].d(A)[sp].d(T)[sp].d([m5C])[sp].d(T)[sp].d(A)[sp].d(T)[sp].d(A)[sp].d([m5C])[sp].d(T)[sp].[moe](G)p.[moe](A)[sp].[moe](A)}$$$$ (last 3' nucleoside missing) | 0 score 0-7 |
| RNA1{[moe](G)[sp].[moe](T)p.[moe](G)p.[moe]([m5C])p.[moe](T)p.d(T)[sp].d(T)[sp].d(T)[sp].d([m5C])[sp].d(A)[sp].d(T)[sp].d(A)[sp].d([m5C])[sp].d([m5C])[sp].d(A)[sp].[moe](G)p.[moe](G)p.[moe](T)[sp].[moe]([m5C])}$$$$ (last 3' nucleoside missing) | 1.5 score 0-7 |
| RNA1{[moe](T)[sp].[moe](G)p.[moe](G)[sp].[moe]([m5C])[sp].[moe](A)[sp].d([m5C])[sp].d(A)[sp].d(T)[sp].d(T)[sp].d(T)[sp].d(T)[sp].d(T)[sp].d(T)[sp].d(A)[sp].d(T)[sp].[moe](A)[sp].[moe](G)p.[moe](A)[sp].[moe](G)}$$$$ (last 3' nucleoside missing) | 6 score 0-7 |
| RNA1{[moe]([m5C])[sp].[moe](A)p.[moe](A)p.[moe](T)p.[moe](A)[sp].d(T)[sp].d(T)[sp].d(T)[sp].d(A)[sp].d(T)[sp].d(A)[sp].d(G)[sp].d(G)[sp].d(T)[sp].d(G)[sp].[moe]([m5C])p.[moe](T)p.[moe](G)[sp].[moe]([m5C])}$$$$ (last 3' nucleoside missing) | 4.5 score 0-7 |
| RNA1{[moe](G)[sp].[moe](T)p.[moe](G)p.[moe]([m5C])p.[moe](T)[sp].d(T)[sp].d(T)[sp].d(T)[sp].d([m5C])[sp].d(A)[sp].d(T)[sp].d(A)[sp].d([m5C])[sp].d([m5C])[sp].d(A)[sp].[moe](G)p.[moe](G)p.[moe](T)[sp].[moe]([m5C])}$$$$ (last 3' nucleoside missing) | 1 score 0-7 |
